Experimental data: publication PMC5513680 (Medical Science Monitor : International Medical Journal of …, 2017)

Key:
Assay type in all cases: biochemical
[1] = molecular target: Acetylcholinesterase (AChE) (Homo sapiens, UniProt P22303); test: AChE inhibition assay; conditions: for Selectivity Index (SI): determined by BuChE/AChE (IC50 ratio)
[2] = molecular target: butylcholinesterase (BuChE) (Homo sapiens, UniProt P06276); test: BChE inhibition assay
Aβ (1–42) = Aβ (1–42) (Homo sapiens, UniProt P05067); test: Self-mediated Aβ
β-secretase = β-secretase (Homo sapiens, UniProt P56817); test: β-secretase inhibition assay
β-secretase, sequence (P56817 46-501): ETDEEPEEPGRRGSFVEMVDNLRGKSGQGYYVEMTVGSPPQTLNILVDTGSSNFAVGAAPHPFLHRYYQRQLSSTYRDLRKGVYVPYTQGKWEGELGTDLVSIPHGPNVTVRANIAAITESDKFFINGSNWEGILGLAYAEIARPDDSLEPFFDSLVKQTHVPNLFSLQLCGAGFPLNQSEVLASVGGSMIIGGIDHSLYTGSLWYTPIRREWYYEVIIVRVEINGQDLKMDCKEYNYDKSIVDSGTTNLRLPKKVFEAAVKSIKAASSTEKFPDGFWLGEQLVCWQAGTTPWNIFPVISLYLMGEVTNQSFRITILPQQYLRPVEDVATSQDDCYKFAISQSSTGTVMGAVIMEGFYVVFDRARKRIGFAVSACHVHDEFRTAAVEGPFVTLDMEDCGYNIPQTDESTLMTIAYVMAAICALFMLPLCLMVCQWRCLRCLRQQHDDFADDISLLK

butylcholinesterase (BuChE), sequence (P06276 29-602): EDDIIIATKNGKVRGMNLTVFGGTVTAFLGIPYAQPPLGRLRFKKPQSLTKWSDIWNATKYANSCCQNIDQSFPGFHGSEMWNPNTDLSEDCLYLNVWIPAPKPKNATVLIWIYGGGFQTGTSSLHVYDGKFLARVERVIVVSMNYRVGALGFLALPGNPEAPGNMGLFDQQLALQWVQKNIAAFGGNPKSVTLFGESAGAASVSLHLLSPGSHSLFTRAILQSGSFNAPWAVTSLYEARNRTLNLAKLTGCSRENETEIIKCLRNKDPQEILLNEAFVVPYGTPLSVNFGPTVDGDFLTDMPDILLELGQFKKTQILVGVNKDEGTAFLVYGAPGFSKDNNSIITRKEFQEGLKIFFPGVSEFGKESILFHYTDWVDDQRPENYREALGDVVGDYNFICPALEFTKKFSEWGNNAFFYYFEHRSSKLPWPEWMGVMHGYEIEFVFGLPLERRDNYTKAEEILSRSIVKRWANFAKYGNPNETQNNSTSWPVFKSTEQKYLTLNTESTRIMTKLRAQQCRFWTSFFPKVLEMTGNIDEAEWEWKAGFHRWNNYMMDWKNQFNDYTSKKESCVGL
Acetylcholinesterase (AChE), sequence (P22303 32-614, species assumed): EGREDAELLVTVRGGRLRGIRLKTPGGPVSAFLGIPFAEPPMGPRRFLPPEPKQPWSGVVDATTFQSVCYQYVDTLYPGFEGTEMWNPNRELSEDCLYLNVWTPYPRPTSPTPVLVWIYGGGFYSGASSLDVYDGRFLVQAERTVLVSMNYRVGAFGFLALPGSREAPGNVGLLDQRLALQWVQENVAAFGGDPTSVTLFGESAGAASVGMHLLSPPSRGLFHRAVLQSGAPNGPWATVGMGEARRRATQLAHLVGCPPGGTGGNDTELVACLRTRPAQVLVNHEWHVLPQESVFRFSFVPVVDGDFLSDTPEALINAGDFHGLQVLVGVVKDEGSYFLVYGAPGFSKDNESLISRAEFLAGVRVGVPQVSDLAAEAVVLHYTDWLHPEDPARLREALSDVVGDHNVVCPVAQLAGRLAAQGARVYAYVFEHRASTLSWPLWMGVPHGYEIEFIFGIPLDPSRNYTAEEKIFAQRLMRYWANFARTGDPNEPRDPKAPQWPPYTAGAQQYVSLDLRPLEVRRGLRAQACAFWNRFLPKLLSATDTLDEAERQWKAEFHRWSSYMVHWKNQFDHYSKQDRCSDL
Aβ (1–42), sequence (P05067 672-713): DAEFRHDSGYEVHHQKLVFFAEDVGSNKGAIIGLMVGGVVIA

| Structure (SMILES) | IC50 [1] | Selectivity Index (SI) [1] | IC50 [2] | fold less active against AChE than the parent compound (8g) ([1]; relative to 8g) | fold less active against BuChE than the parent compound (8g) ([2]; relative to 8g) | IC50 (Aβ (1–42)) | IC50 (β-secretase) |
| --- | --- | --- | --- | --- | --- | --- | --- |
| O=C(/C=C/c1ccccc1)c1ccc(OCCNC2CCN(Cc3ccccc3)CC2)cc1 [8a, (E)-1-(4-(2-((1-benzylpiperidin-4-yl)amino)ethoxy)phenyl)-3-phenylprop-2-en-1-one] | 32.34 ± 0.26 µM | 0.67 | 21.72 ± 0.11 µM |  |  |  |  |
| O=C(/C=C/c1ccccc1)c1ccc(OCCNC2CCN(Cc3ccc(Cl)cc3)CC2)cc1 [8b, (E)-1-(4-(2-((1-(4-chlorobenzyl)piperidin-4-yl)amino)ethoxy)phenyl)-3-phenylprop-2-en-1-one] | 10 ± 0.54 µM | 1.93 | 19.45 ± 0.15 µM |  |  |  |  |
| O=C(/C=C/c1ccccc1)c1ccc(OCCNC2CCN(Cc3ccc(Br)cc3)CC2)cc1 [8c, (E)-1-(4-(2-((1-(4-bromobenzyl)piperidin-4-yl)amino)ethoxy)phenyl)-3-phenylprop-2-en-1-one] | 18.1 ± 0.33 µM | 1.56 | 28.4 ± 0.42 µM |  |  |  |  |
| O=C(/C=C/c1ccccc1)c1ccc(OCCNC2CCN(Cc3ccc(F)cc3)CC2)cc1 [8d, (E)-1-(4-(2-((1-(4-fluorobenzyl)piperidin-4-yl)amino)ethoxy)phenyl)-3-phenylprop-2-en-1-one] | 14.2 ± 0.15 µM | 1.86 | 26.5 ± 0.28 µM |  |  |  |  |
| O=C(/C=C/c1ccccc1)c1ccc(OCCNC2CCN(Cc3ccc([N+](=O)[O-])cc3)CC2)cc1 [8e, (E)-1-(4-(2-((1-(4-nitrobenzyl)piperidin-4-yl)amino)ethoxy)phenyl)-3-phenylprop-2-en-1-one] | 28.62 ± 0.22 µM | 0.87 | 25 ± 0.31 µM |  |  |  |  |
| COc1ccc(CN2CCC(NCCOc3ccc(C(=O)/C=C/c4ccccc4)cc3)CC2)cc1 [8f, (E)-1-(4-(2-((1-(4-methoxybenzyl)piperidin-4-yl)amino)ethoxy)phenyl)-3-phenylprop-2-en-1-one] | 4.22 ± 0.34 µM | 2.23 | 9.45 ± 0.25 µM | approximately 3 fold | approximately 3 fold |  |  |
| Cc1ccc(CN2CCC(NCCOc3ccc(C(=O)/C=C/c4ccccc4)cc3)CC2)cc1 [8g, (E)-1-(4-(2-((1-(4-methylbenzyl)piperidin-4-yl)amino)ethoxy)phenyl)-3-phenylprop-2-en-1-one] | 1.12 ± 0.13 µM | 2.88 | 3.23 ± 0.12 µM |  |  | 18.2 ± 2.3 µM | 23.1 ± 1.8 µM |
| O=C(/C=C/c1ccccc1)c1ccc(OCCNC2CCN(Cc3ccc(Cl)c(Cl)c3)CC2)cc1 [8h, (E)-1-(4-(2-((1-(3,4-dichlorobenzyl)piperidin-4-yl)amino)ethoxy)phenyl)-3-phenylprop-2-en-1-one] |  | 1.06 |  |  |  |  |  |
